Target: T1, human GIPR (Homo sapiens, UniProt P48546)
T1 construct: host or cells: CHO-K1
T1 sequence (P48546 22-466): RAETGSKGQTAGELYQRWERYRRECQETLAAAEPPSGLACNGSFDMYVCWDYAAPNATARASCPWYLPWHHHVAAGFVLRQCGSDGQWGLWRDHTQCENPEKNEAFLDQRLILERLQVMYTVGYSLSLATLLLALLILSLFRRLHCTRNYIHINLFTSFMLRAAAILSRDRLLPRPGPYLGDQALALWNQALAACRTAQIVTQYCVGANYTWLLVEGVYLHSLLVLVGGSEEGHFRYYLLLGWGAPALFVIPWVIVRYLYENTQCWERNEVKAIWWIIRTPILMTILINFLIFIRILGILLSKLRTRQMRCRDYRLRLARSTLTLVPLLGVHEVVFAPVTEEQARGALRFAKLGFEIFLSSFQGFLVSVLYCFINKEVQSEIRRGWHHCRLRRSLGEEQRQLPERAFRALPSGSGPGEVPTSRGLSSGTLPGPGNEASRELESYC
Experiment: cAMP production in CHO-K1 cells expressing human GIPR (LANCE cAMP assay)
Assay type: cell-based
Conditions: for Emax: CHO-K1, read-out: % activation of cAMP (maximal stimulation)
Method: CHO—K1 cells expressing human GIPR were obtained from DiscoverX Corporation (Fremont, Calif.). The cells were cultured in Ham's F-12 nutrient media supplemented with 10% foetal bovine serum, 800 μg/ml geneticin, 300 μg/ml hydromycin, 2 mM L-glutamine, and Penicillin-streptomycin (100 units, 100 μg) at 37° C. in a 5% CO2 incubator. The cells were harvested at 90% confluence.
The cells were suspended in Ham's F-12 nutrient media to a concentration of 200,000 cells/ml. The cells were then plated in a 384 well plate at with […] of the suspension added per well. The cells were incubated overnight at 37° C. in a 5% CO2 incubator.
The activity of the compounds was determined by stimulating the CHO—K1 cells with the test compound, and measuring the levels of cAMP produced. The activity of the compounds was compared to the activity of native GIP, as GIP stimulates cAMP production. 6 μl of the test compound in stimulation buffer (990 ml Hank's Balanced Salt solution (HBSS) (1×) (Invitrogen Corp #14025-092), 10 ml Hepes buffer solution (1 mol·L) (Invitrogen Corp 15630-080), 1 g BSA (final 0.1%), and 1 ml IBMX 250 mM stock prepared fresh in DMSO (Sigma-Aldrich 15879)) were added to cells, followed by 6 μl of Alexa Fluor® 647-anti cAMP antibody (Perkin Elmer) in stimulation buffer. […] The well plate was centrifuged for 3 min at 300 rpm, and incubated at room temperature for 45 minutes. 12 μl of detection mixture (biotin cAMP and EUW8044 labeled streptavidin (Eu-SA) in cAMP Detection Buffer (Perkin Elmer)) was added and incubated for 60 min at room temperature.
The levels of cAMP produced were measured according to the detailed protocol outlined in the Perkin Elmer LANCE cAMP Assay Perkin Elmer Lance cAMP Kit manual. The activity of the compounds was compared to the activity of native GIP.
The plates are read on a TRF detection instrument, EnVision® (Perkin Elmer) (excitation at 340 nm and emission at 665 nm). The values of the cAMP signal are obtained from the standard cAMP curve and used to determine the amount of maximal stimulation, and EC50 for stimulating the cAMP signal.

Compound	EC50 [nM]	Emax [%]	% activation of cAMP (maximal stimulation) (CHO-K1 cells expressing human GIPR, compared to native GIP) [%]
CC[C@H](C)[C@H](NC(=O)[C@H](CO)NC(=O)[C@H](Cc1ccc(O)cc1)NC(=O)[C@H](CC(=O)O)NC(=O)[C@H](CO)NC(=O)[C@@H](NC(=O)[C@H](Cc1ccccc1)NC(=O)[C@@H](NC(=O)CNC(=O)[C@H](CCC(=O)O)NC(=O)[C@H](C)NC(=O)CCc1ccccc1)[C@@H](C)O)[C@@H](C)CC)C(=O)N[C@@H](C)C(=O)N[C@@H](CCSC)C(=O)N[C@@H](CC(=O)O)C(=O)N[C@@H](CCCCN)C(=O)N[C@H](C(=O)N[C@@H](Cc1c[nH]cn1)C(=O)N[C@@H](CCC(N)=O)C(=O)N[C@@H](CCC(N)=O)C(=O)N[C@@H](CC(=O)O)C(=O)N[C@@H](Cc1ccccc1)C(=O)N[C@H](C(=O)N[C@@H](CC(N)=O)C(=O)N[C@@H](Cc1c[nH]c2ccccc12)C(=O)N[C@@H](CC(C)C)C(=O)N[C@@H](CC(C)C)C(=O)N[C@@H](C)C(=O)N[C@@H](CCC(N)=O)C(=O)N[C@@H](CCCCN)C(N)=O)C(C)C)[C@@H](C)CC [Example 9]	0.797	101	–
CC[C@H](C)[C@H](NC(=O)[C@H](CO)NC(=O)[C@H](Cc1ccc(O)cc1)NC(=O)[C@H](CC(=O)O)NC(=O)[C@H](CO)NC(=O)[C@@H](NC(=O)[C@H](Cc1ccccc1)NC(=O)[C@@H](NC(=O)CNC(=O)[C@H](CCC(=O)O)NC(=O)[C@H](C)NC(=O)[C@@H](Cc1cc(F)cc(F)c1)NC(C)=O)[C@@H](C)O)[C@@H](C)CC)C(=O)N[C@@H](C)C(=O)N[C@@H](CCSC)C(=O)N[C@@H](CC(=O)O)C(=O)N[C@@H](CCCCN)C(=O)N[C@H](C(=O)N[C@@H](Cc1c[nH]cn1)C(=O)N[C@@H](CCC(N)=O)C(=O)N[C@@H](CCC(N)=O)C(=O)N[C@@H](CC(=O)O)C(=O)N[C@@H](Cc1ccccc1)C(=O)N[C@H](C(=O)N[C@@H](CC(N)=O)C(=O)N[C@@H](Cc1c[nH]c2ccccc12)C(=O)N[C@@H](CC(C)C)C(=O)N[C@@H](CC(C)C)C(=O)N[C@@H](C)C(=O)N[C@@H](CCC(N)=O)C(=O)N[C@@H](CCCCN)C(N)=O)C(C)C)[C@@H](C)CC [Example 17]	0.003	99.6	–
CC[C@H](C)[C@H](NC(=O)[C@H](CO)NC(=O)[C@H](Cc1ccc(O)cc1)NC(=O)[C@H](CC(=O)O)NC(=O)[C@H](CO)NC(=O)[C@@H](NC(=O)[C@H](Cc1ccccc1)NC(=O)[C@@H](NC(=O)CNC(=O)[C@H](CCC(=O)O)NC(=O)[C@H](C)NC(=O)[C@@H](Cc1ccc(Cl)cc1)NC(C)=O)[C@@H](C)O)[C@@H](C)CC)C(=O)N[C@@H](C)C(=O)N[C@@H](CCSC)C(=O)N[C@@H](CC(=O)O)C(=O)N[C@@H](CCCCN)C(=O)N[C@H](C(=O)N[C@@H](Cc1c[nH]cn1)C(=O)N[C@@H](CCC(N)=O)C(=O)N[C@@H](CCC(N)=O)C(=O)N[C@@H](CC(=O)O)C(=O)N[C@@H](Cc1ccccc1)C(=O)N[C@H](C(=O)N[C@@H](CC(N)=O)C(=O)N[C@@H](Cc1c[nH]c2ccccc12)C(=O)N[C@@H](CC(C)C)C(=O)N[C@@H](CC(C)C)C(=O)N[C@@H](C)C(=O)N[C@@H](CCC(N)=O)C(=O)N[C@@H](CCCCN)C(N)=O)C(C)C)[C@@H](C)CC [Example 14]	0.025	106	–
CC[C@H](C)[C@H](NC(=O)[C@H](CO)NC(=O)[C@H](Cc1ccc(O)cc1)NC(=O)[C@H](CC(=O)O)NC(=O)[C@H](CO)NC(=O)[C@@H](NC(=O)[C@H](Cc1ccccc1)NC(=O)[C@@H](NC(=O)CNC(=O)[C@H](CCC(=O)O)NC(=O)[C@H](C)NC(=O)[C@@H](Cc1ccccc1)NC(C)=O)[C@@H](C)O)[C@@H](C)CC)C(=O)N[C@@H](C)C(=O)N[C@@H](CCSC)C(=O)N[C@@H](CC(=O)O)C(=O)N[C@@H](CCCCN)C(=O)N[C@H](C(=O)N[C@@H](Cc1c[nH]cn1)C(=O)N[C@@H](CCC(N)=O)C(=O)N[C@@H](CCC(N)=O)C(=O)N[C@@H](CC(=O)O)C(=O)N[C@@H](Cc1ccccc1)C(=O)N[C@H](C(=O)N[C@@H](CC(N)=O)C(=O)N[C@@H](Cc1c[nH]c2ccccc12)C(=O)N[C@@H](CC(C)C)C(=O)N[C@@H](CC(C)C)C(=O)N[C@@H](C)C(=O)N[C@@H](CCC(N)=O)C(=O)N[C@@H](CCCCN)C(N)=O)C(C)C)[C@@H](C)CC [Example 8]	0.685	102	–
CC[C@H](C)[C@H](NC(=O)[C@H](CO)NC(=O)[C@H](Cc1ccc(O)cc1)NC(=O)[C@H](CC(=O)O)NC(=O)[C@H](CO)NC(=O)[C@@H](NC(=O)[C@H](Cc1ccccc1)NC(=O)[C@@H](NC(=O)CNC(=O)[C@H](CCC(=O)O)NC(=O)[C@H](C)NC(=O)[C@@H](Cc1cc(F)c(F)c(F)c1)NC(C)=O)[C@@H](C)O)[C@@H](C)CC)C(=O)N[C@@H](C)C(=O)N[C@@H](CCSC)C(=O)N[C@@H](CC(=O)O)C(=O)N[C@@H](CCCCN)C(=O)N[C@H](C(=O)N[C@@H](Cc1c[nH]cn1)C(=O)N[C@@H](CCC(N)=O)C(=O)N[C@@H](CCC(N)=O)C(=O)N[C@@H](CC(=O)O)C(=O)N[C@@H](Cc1ccccc1)C(=O)N[C@H](C(=O)N[C@@H](CC(N)=O)C(=O)N[C@@H](Cc1c[nH]c2ccccc12)C(=O)N[C@@H](CC(C)C)C(=O)N[C@@H](CC(C)C)C(=O)N[C@@H](C)C(=O)N[C@@H](CCC(N)=O)C(=O)N[C@@H](CCCCN)C(N)=O)C(C)C)[C@@H](C)CC [Example 18]	0.104	100	–
Ac-(D)Tyr-Ala-Glu-Gly-Thr-Phe-Ile-Ser-Asp-Tyr-Ser-Ile-Ala-Met-Asp-Lys-Ile-His-Gln-Gln-Asp-Phe-Val-Asn-Trp-Leu-Leu-Ala-Gln-Lys-NH2 [Example 6]	–	–	102
CC[C@H](C)[C@H](NC(=O)[C@H](CO)NC(=O)[C@H](Cc1ccc(O)cc1)NC(=O)[C@H](CC(=O)O)NC(=O)[C@H](CO)NC(=O)[C@@H](NC(=O)[C@H](Cc1ccccc1)NC(=O)[C@@H](NC(=O)CNC(=O)[C@H](CCC(=O)O)NC(=O)[C@H](C)NC(=O)[C@@H](Cc1cccc(Cl)c1)NC(C)=O)[C@@H](C)O)[C@@H](C)CC)C(=O)N[C@@H](C)C(=O)N[C@@H](CCSC)C(=O)N[C@@H](CC(=O)O)C(=O)N[C@@H](CCCCN)C(=O)N[C@H](C(=O)N[C@@H](Cc1c[nH]cn1)C(=O)N[C@@H](CCC(N)=O)C(=O)N[C@@H](CCC(N)=O)C(=O)N[C@@H](CC(=O)O)C(=O)N[C@@H](Cc1ccccc1)C(=O)N[C@H](C(=O)N[C@@H](CC(N)=O)C(=O)N[C@@H](Cc1c[nH]c2ccccc12)C(=O)N[C@@H](CC(C)C)C(=O)N[C@@H](CC(C)C)C(=O)N[C@@H](C)C(=O)N[C@@H](CCC(N)=O)C(=O)N[C@@H](CCCCN)C(N)=O)C(C)C)[C@@H](C)CC [Example 13]	0.072	106	–
CC[C@H](C)[C@H](NC(=O)[C@H](CO)NC(=O)[C@H](Cc1ccc(O)cc1)NC(=O)[C@H](CC(=O)O)NC(=O)[C@H](CO)NC(=O)[C@@H](NC(=O)[C@H](Cc1ccccc1)NC(=O)[C@@H](NC(=O)CNC(=O)[C@H](CCC(=O)O)NC(=O)[C@H](C)NC(=O)CCc1ccc(O)cc1)[C@@H](C)O)[C@@H](C)CC)C(=O)N[C@@H](C)C(=O)N[C@@H](CCSC)C(=O)N[C@@H](CC(=O)O)C(=O)N[C@@H](CCCCN)C(=O)N[C@H](C(=O)N[C@@H](Cc1c[nH]cn1)C(=O)N[C@@H](CCC(N)=O)C(=O)N[C@@H](CCC(N)=O)C(=O)N[C@@H](CC(=O)O)C(=O)N[C@@H](Cc1ccccc1)C(=O)N[C@H](C(=O)N[C@@H](CC(N)=O)C(=O)N[C@@H](Cc1c[nH]c2ccccc12)C(=O)N[C@@H](CC(C)C)C(=O)N[C@@H](CC(C)C)C(=O)N[C@@H](C)C(=O)N[C@@H](CCC(N)=O)C(=O)N[C@@H](CCCCN)C(N)=O)C(C)C)[C@@H](C)CC [Example 7]	0.095	103	–
